From the supplement of paper PMC10307832

Tests used:
Test in all cases: relative viability (nuclei count vs DMSO), 5 days (fraction); higher = more cells survive
Vismodegib + Luminespib = compound: CS(=O)(=O)c1ccc(C(=O)Nc2ccc(Cl)c(-c3ccccn3)c2)c(Cl)c1 [Vismodegib] + CCNC(=O)c1noc(-c2cc(C(C)C)c(O)cc2O)c1-c1ccc(CN2CCOCC2)cc1 [Luminespib] (partner 0.01 µM)
Procedure, shortened: (§1)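 One day after seeding in 1536-well plates, lung cancer cell lines were dosed by pin tool. Dosing was either single-drug or a fixed anchor-drug dose plus five library-drug doses (not always all listed) in √10 steps. After 5 days, nuclei were stained in one fix-and-stain step and counted on 4× images, and relative viability is the nuclei count of treated wells over that of vehicle wells, given as the median of duplicate plates.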

VE-821 + Phenformin = compound: CS(=O)(=O)c1ccc(-c2cnc(N)c(C(=O)Nc3ccccc3)n2)cc1 [VE-821] + N=C(N)NC(=N)NCCc1ccccc1 [Phenformin] (partner 250 µM)
Procedure, shortened: as §1

Vismodegib + Trametinib = compound: CS(=O)(=O)c1ccc(C(=O)Nc2ccc(Cl)c(-c3ccccn3)c2)c(Cl)c1 [Vismodegib] + CC(=O)Nc1cccc(-n2c(=O)n(C3CC3)c(=O)c3c(Nc4ccc(I)cc4F)n(C)c(=O)c(C)c32)c1 [Trametinib] (partner 0.02 µM)
Procedure, shortened: as §1

VE-821 + Navitoclax = compound: CS(=O)(=O)c1ccc(-c2cnc(N)c(C(=O)Nc3ccccc3)n2)cc1 [VE-821] + CC1(C)CCC(c2ccc(Cl)cc2)=C(CN2CCN(c3ccc(C(=O)NS(=O)(=O)c4ccc(N[C@H](CCN5CCOCC5)CSc5ccccc5)c(S(=O)(=O)C(F)(F)F)c4)cc3)CC2)C1 [Navitoclax] (partner 0.5 µM)
Procedure, shortened: as §1

With NCI-H460 the relative viability (Vismodegib + Luminespib; first compound 0.08 µM) was 0.0373, the relative viability (Vismodegib + Luminespib; first compound 0.253 µM) was 0.0299 and the relative viability (Vismodegib + Luminespib; first compound 0.8 µM) was 0.038. It also gave a relative viability (Vismodegib + Luminespib; first compound 2.53 µM) of 0.0291, a relative viability (Vismodegib + Luminespib; first compound 8 µM) of 0.0297 and a relative viability (VE-821 + Phenformin; first compound 0.08 µM) of 0.574. For the same cell line, the relative viability (VE-821 + Phenformin; first compound 0.253 µM) was 0.482, the relative viability (VE-821 + Phenformin; first compound 0.8 µM) was 0.398 and the relative viability (VE-821 + Phenformin; first compound 2.53 µM) was 0.205. For the same cell line, the relative viability (VE-821 + Phenformin; first compound 8 µM) was 0.0832, the relative viability (Vismodegib + Trametinib; first compound 0.08 µM) was 0.175 and the relative viability (Vismodegib + Trametinib; first compound 0.253 µM) was 0.132. For the same cell line, the relative viability (Vismodegib + Trametinib; first compound 0.8 µM) was 0.127, the relative viability (Vismodegib + Trametinib; first compound 2.53 µM) was 0.141 and the relative viability (Vismodegib + Trametinib; first compound 8 µM) was 0.107. The relative viability (VE-821 + Navitoclax; first compound 0.08 µM) was 1.23, the relative viability (VE-821 + Navitoclax; first compound 0.253 µM) was 1.01 and the relative viability (VE-821 + Navitoclax; first compound 0.8 µM) was 1.02. It also gave a relative viability (VE-821 + Navitoclax; first compound 2.53 µM) of 0.646 and a relative viability (VE-821 + Navitoclax; first compound 8 µM) of 0.159.
Cell Line NCI-H1395 has a relative viability (Vismodegib + Luminespib; first compound 0.08 µM) of 0.708, a relative viability (Vismodegib + Luminespib; first compound 0.253 µM) of 0.764 and a relative viability (Vismodegib + Luminespib; first compound 0.8 µM) of 0.535. It also gave a relative viability (Vismodegib + Luminespib; first compound 2.53 µM) of 0.624, a relative viability (Vismodegib + Luminespib; first compound 8 µM) of 0.621 and a relative viability (VE-821 + Phenformin; first compound 0.08 µM) of 0.43. The relative viability (VE-821 + Phenformin; first compound 0.253 µM) was 0.415, the relative viability (VE-821 + Phenformin; first compound 0.8 µM) was 0.449 and the relative viability (VE-821 + Phenformin; first compound 2.53 µM) was 0.467. It also gave a relative viability (VE-821 + Phenformin; first compound 8 µM) of 0.41, a relative viability (Vismodegib + Trametinib; first compound 0.08 µM) of 0.851 and a relative viability (Vismodegib + Trametinib; first compound 0.253 µM) of 0.958. For the same cell line, the relative viability (Vismodegib + Trametinib; first compound 0.8 µM) was 0.878, the relative viability (Vismodegib + Trametinib; first compound 2.53 µM) was 0.921 and the relative viability (Vismodegib + Trametinib; first compound 8 µM) was 1.1. The relative viability (VE-821 + Navitoclax; first compound 0.253 µM) was 1.09, the relative viability (VE-821 + Navitoclax; first compound 0.8 µM) was 1.3 and the relative viability (VE-821 + Navitoclax; first compound 2.53 µM) was 1.32. It also gave a relative viability (VE-821 + Navitoclax; first compound 8 µM) of 0.72.
NCI-H647 showed a relative viability (Vismodegib + Luminespib; first compound 0.08 µM) of 0.505, a relative viability (Vismodegib + Luminespib; first compound 0.253 µM) of 0.227 and a relative viability (Vismodegib + Luminespib; first compound 0.8 µM) of 0.219. It also gave a relative viability (Vismodegib + Luminespib; first compound 2.53 µM) of 0.125, a relative viability (Vismodegib + Luminespib; first compound 8 µM) of 0.181 and a relative viability (VE-821 + Phenformin; first compound 0.08 µM) of 0.556. The relative viability (VE-821 + Phenformin; first compound 0.253 µM) was 0.532, the relative viability (VE-821 + Phenformin; first compound 0.8 µM) was 0.454 and the relative viability (VE-821 + Phenformin; first compound 2.53 µM) was 0.533. It also gave a relative viability (VE-821 + Phenformin; first compound 8 µM) of 0.211, a relative viability (Vismodegib + Trametinib; first compound 0.08 µM) of 0.446 and a relative viability (Vismodegib + Trametinib; first compound 0.253 µM) of 0.486. It also gave a relative viability (Vismodegib + Trametinib; first compound 0.8 µM) of 0.517, a relative viability (Vismodegib + Trametinib; first compound 2.53 µM) of 0.409 and a relative viability (Vismodegib + Trametinib; first compound 8 µM) of 0.55. For the same cell line, the relative viability (VE-821 + Navitoclax; first compound 0.08 µM) was 1.09, the relative viability (VE-821 + Navitoclax; first compound 0.253 µM) was 1.15 and the relative viability (VE-821 + Navitoclax; first compound 0.8 µM) was 0.856. It also gave a relative viability (VE-821 + Navitoclax; first compound 2.53 µM) of 1 and a relative viability (VE-821 + Navitoclax; first compound 8 µM) of 0.573.
NCI-H23 was tested, and the relative viability (Vismodegib + Luminespib; first compound 0.08 µM) was 0.25, the relative viability (Vismodegib + Luminespib; first compound 0.8 µM) was 0.198 and the relative viability (Vismodegib + Luminespib; first compound 2.53 µM) was 0.258. It also gave a relative viability (Vismodegib + Luminespib; first compound 8 µM) of 0.227, a relative viability (VE-821 + Phenformin; first compound 0.08 µM) of 0.812 and a relative viability (VE-821 + Phenformin; first compound 0.253 µM) of 0.743. It also gave a relative viability (VE-821 + Phenformin; first compound 0.8 µM) of 0.785, a relative viability (VE-821 + Phenformin; first compound 2.53 µM) of 0.844 and a relative viability (VE-821 + Phenformin; first compound 8 µM) of 0.479. For the same cell line, the relative viability (Vismodegib + Trametinib; first compound 0.08 µM) was 0.511, the relative viability (Vismodegib + Trametinib; first compound 0.253 µM) was 0.353 and the relative viability (Vismodegib + Trametinib; first compound 0.8 µM) was 0.368. It also gave a relative viability (Vismodegib + Trametinib; first compound 2.53 µM) of 0.411, a relative viability (Vismodegib + Trametinib; first compound 8 µM) of 0.482 and a relative viability (VE-821 + Navitoclax; first compound 0.08 µM) of 0.856. The relative viability (VE-821 + Navitoclax; first compound 0.253 µM) was 0.797, the relative viability (VE-821 + Navitoclax; first compound 0.8 µM) was 0.553 and the relative viability (VE-821 + Navitoclax; first compound 2.53 µM) was 0.747. It also gave a relative viability (VE-821 + Navitoclax; first compound 8 µM) of 0.491.
